What all share (assay type): biochemical
Test [1] deals with T1, GSK-3β (Homo sapiens, UniProt P49841). In words: Kinetic studies of GSK-3β inhibition (ADP-Glo, varying ATP). Further details: purchased Promega. As to the method: Non-linear regression analysis of the Michaelis–Menten equation was conducted on ATP-velocity curves to calculate the Vmax and Km parameters. […] Lineweaver–Burk and Cornish–Bowden plots, included in the Supporting Information (Figure S1A,B), further illustrate this observation. […] (refer to Supporting Information, Figure S2). The negative Ki value was directly derived from the plot at the x-axis intersection.
T1 sequence (P49841 whole entry): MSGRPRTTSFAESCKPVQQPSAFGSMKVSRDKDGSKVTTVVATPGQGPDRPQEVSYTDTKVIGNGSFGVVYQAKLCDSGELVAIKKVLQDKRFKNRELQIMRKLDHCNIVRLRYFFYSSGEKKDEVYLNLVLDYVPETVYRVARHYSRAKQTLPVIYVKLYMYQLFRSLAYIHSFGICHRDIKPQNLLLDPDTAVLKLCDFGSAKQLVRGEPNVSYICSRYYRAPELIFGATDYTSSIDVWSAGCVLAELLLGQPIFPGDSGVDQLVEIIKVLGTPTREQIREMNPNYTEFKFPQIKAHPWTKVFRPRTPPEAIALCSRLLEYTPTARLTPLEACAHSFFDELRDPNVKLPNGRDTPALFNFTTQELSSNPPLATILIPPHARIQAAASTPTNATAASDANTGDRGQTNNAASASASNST
Kinetic studies were performed using the GSK-3β Kinase Enzyme System (Promega; Madison, WI, USA) and ADP-Glo™ bioluminescent assay (Promega; Madison, WI, USA), following the manufacturer’s instructions. The general workflow is described in Section 6.9. Evaluation of In Vitro Inhibitory Potencies towards Kinases GSK-3β, IKK-β, and ROCK-1. […] The substrate concentration was kept constant. The luminescence was measured using the EnSpire multimode microplate reader (PerkinElmer, Waltham, MA, USA). Each data point was collected in triplicate. Vmax and Km values of the Michaelis–Menten kinetics were calculated using nonlinear regression from ATP–velocity curves. Lineweaver–Burk and Cornish–Bowden plots were obtained via linear regression in GraphPad Prism (GraphPad Prism 9; GraphPad Software, San Diego, CA, USA). The Ki value of inhibitor 62 was determined by replotting the Lineweaver–Burk plots data (Km versus [I]).
Kinetic studies of GSK-3β inhibition by compound 62
type of GSK-3β inhibition by compound 62; V = initial velocity rate, S = ATP concentration,
I = inhibitor concentration.
Figure S2. Determination of Ki value for ATP-competitive inhibitor 62. Data replot from
= Michaelis-Menten constant.
(also on this page, place not known: K i -15 -10 -5 5 10 15 -100 -50 50 100 Cmpd 62_Ki determination I [nM] Km -Ki) […]
(ADP-Glo turns the ADP formed in a reaction into a luminescent signal.)

Test [2] addresses T2, DYRK1B (Homo sapiens, UniProt Q9Y463).
T2 construct: purchased Eurofins Discovery (KinaseProfiler service)
In words: Eurofins KinaseProfiler radiometric selectivity screen. To be noted: Km ATP, remaining enzyme activity, n = 2. As to the method: (§1) Compound 62 is an ATP-competitive inhibitor of GSK-3β, raising concerns about selectivity. Therefore, we performed a selectivity screening at Eurofins Discovery on the CMGC group of kinases, which included the CDK, DYRK, MAPK, and GSK families (Figure 3 and Table S1 in the SI).
(§2) Selectivity studies for compound 62
(§3) Selectivity studies were performed at Eurofins in Kinase Enzymatic Radiometric [Km ATP]
(§4) Kinase Profiler Lead Hunter Assay. The percentage of enzymatic activity was measured at 1
(§5) µM of compound 62 in duplicate for 17 selected kinases.
(§6) Table S1. Inhibitory activity of compound 62 against panel of selected CMGC kinases.
(§7) kinase % of enzyme activity at 1 μM of compound 62±SD*
(§8) *Where n = 2, the value reported here is actually range / √ 2 .

Test [3] has as its target T3, GSK-3α (Homo sapiens, UniProt P49840).
T3 construct: purchased Eurofins Discovery (KinaseProfiler service)
The test is described as above. The following applies: Km ATP, remaining enzyme activity, n = 2. As to the method:
as §1, §2, §3, §4, §5, §6, §7, §8

The target in test [4] is T4, CDK7/cyclinH/ MAT1 (Homo sapiens, UniProt P50613).
T4 construct: purchased Eurofins Discovery (KinaseProfiler service)
The test is described as above. The following applies: Km ATP, remaining enzyme activity, n = 2. As to the method: as §1, §2, §3, §4, §5, §6, §7, §8

In test [5] the target is T5, CDK6/cyclinD3 (Homo sapiens, UniProt Q00534).
T5 construct: purchased Eurofins Discovery (KinaseProfiler service)
T5 sequence (Q00534 whole entry): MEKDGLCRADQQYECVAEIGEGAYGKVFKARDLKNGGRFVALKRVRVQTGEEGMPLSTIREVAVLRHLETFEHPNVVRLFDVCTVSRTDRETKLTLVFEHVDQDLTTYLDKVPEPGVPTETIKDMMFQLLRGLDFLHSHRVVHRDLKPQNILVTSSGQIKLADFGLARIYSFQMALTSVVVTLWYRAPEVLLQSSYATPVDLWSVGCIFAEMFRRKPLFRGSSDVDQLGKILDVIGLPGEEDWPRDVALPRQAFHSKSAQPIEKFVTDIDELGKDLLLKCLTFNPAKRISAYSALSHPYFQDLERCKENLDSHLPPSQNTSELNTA
T5 sequence (P30281 whole entry partner): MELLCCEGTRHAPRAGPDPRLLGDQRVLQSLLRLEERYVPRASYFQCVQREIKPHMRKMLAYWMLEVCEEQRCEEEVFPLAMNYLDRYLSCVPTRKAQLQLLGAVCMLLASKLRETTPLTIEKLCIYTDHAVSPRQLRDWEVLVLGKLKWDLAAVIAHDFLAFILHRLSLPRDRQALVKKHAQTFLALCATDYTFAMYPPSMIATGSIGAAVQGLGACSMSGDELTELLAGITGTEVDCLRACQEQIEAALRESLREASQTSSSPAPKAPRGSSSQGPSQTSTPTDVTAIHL
The test is described as above. The following applies: Km ATP, remaining enzyme activity, n = 2. As to the method:
as §1, §2, §3, §4, §5, §6, §7, §8

The target in test [6] is T6, JNK3 (Homo sapiens, UniProt P53779).
T6 construct: purchased Eurofins Discovery (KinaseProfiler service)
The test is described as above. To be noted: Km ATP, remaining enzyme activity, n = 2. As to the method: as §1, §2, §3, §4, §5, §6, §7, §8

Test [7] deals with T7, CDK2/cyclinA (Homo sapiens, UniProt P24941).
T7 construct: purchased Eurofins Discovery (KinaseProfiler service)
Described as above. The following applies: Km ATP, remaining enzyme activity, n = 2. As to the method:
as §1, §2, §3, §4, §5, §6, §7, §8

In test [8] the target is T8, MAPK1 (Homo sapiens, UniProt P27361).
T8 construct: purchased Eurofins Discovery (KinaseProfiler service)
Described as above. The following applies: Km ATP, remaining enzyme activity, n = 2. As to the method:
as §1, §2, §3, §4, §5, §6, §7, §8

For test [9], the target named is T9, SAPK2b (Homo sapiens, UniProt Q15759).
T9 construct: purchased Eurofins Discovery (KinaseProfiler service)
T9 sequence (Q15759 whole entry): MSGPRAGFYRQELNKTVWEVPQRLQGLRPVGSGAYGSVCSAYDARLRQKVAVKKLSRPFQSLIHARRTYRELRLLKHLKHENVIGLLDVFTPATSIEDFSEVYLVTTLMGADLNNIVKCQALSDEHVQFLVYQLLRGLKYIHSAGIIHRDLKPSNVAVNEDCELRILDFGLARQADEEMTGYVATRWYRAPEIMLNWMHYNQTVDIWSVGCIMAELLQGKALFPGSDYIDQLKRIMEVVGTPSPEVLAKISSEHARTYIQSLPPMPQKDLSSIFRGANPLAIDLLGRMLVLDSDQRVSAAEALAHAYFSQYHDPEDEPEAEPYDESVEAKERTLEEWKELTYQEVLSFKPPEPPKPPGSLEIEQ
The description is as above. To be noted: Km ATP, remaining enzyme activity, n = 2. The protocol: as §1, §2, §3, §4, §5, §6, §7, §8

The target in test [10] is T10, CDK4/cyclinD3 (Homo sapiens, UniProt P11802).
T10 construct: purchased Eurofins Discovery (KinaseProfiler service)
The test is described as above. To be noted: Km ATP, remaining enzyme activity, n = 2. The protocol: as §1, §2, §3, §4, §5, §6, §7, §8

Test [11] has as its target T11, CDK1/cyclinB (Homo sapiens, UniProt P06493).
T11 construct: purchased Eurofins Discovery (KinaseProfiler service)
The test is described as above. The following applies: Km ATP, remaining enzyme activity, n = 2. As to the method:
as §1, §2, §3, §4, §5, §6, §7, §8

Test [12] has as its target T12, JNK2α2 (Homo sapiens, UniProt P45984).
T12 construct: purchased Eurofins Discovery (KinaseProfiler service)
The description is as above. To be noted: Km ATP, remaining enzyme activity, n = 2. The protocol:
as §1, §2, §3, §4, §5, §6, §7, §8

The target of test [13] is T13, SAPK2a(T106M) (Homo sapiens, UniProt Q16539, T106M).
T13 construct: purchased Eurofins Discovery (KinaseProfiler service)
T13 sequence (Q16539 whole entry T106M): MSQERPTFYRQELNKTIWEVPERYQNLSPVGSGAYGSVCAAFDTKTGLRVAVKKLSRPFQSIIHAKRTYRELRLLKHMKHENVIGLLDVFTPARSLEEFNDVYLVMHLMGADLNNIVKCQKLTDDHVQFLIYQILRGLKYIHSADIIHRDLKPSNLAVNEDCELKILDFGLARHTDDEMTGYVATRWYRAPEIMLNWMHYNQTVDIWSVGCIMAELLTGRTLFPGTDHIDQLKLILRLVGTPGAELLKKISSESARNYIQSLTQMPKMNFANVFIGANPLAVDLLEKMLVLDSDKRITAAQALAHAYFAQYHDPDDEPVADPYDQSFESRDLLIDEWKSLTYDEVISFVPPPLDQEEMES
The description is as above. To be noted: Km ATP, remaining enzyme activity, n = 2. The protocol:
as §1, §2, §3, §4, §5, §6, §7, §8

Test [14] deals with T14, DYRK1A (Homo sapiens, UniProt Q13627).
T14 construct: purchased Eurofins Discovery (KinaseProfiler service)
The description is as above. The following applies: Km ATP, remaining enzyme activity, n = 2. As to the method:
as §1, §2, §3, §4, §5, §6, §7, §8

The target in test [15] is T15, MAPK2 (Homo sapiens, UniProt P28482).
T15 construct: purchased Eurofins Discovery (KinaseProfiler service)
T15 sequence (P28482 whole entry): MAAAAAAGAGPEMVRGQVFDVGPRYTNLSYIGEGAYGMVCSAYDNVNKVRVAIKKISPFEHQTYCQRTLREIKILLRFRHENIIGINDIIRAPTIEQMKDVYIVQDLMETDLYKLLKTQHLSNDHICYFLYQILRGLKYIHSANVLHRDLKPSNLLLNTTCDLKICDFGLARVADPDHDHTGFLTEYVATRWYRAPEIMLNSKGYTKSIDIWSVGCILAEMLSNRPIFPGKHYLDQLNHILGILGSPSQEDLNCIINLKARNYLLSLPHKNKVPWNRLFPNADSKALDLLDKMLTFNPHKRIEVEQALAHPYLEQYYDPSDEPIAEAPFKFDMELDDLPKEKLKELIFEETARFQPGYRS
The test is described as above. The following applies: Km ATP, remaining enzyme activity, n = 2. The protocol: as §1, §2, §3, §4, §5, §6, §7, §8

Test [16] concerns the target T16, SAPK3 (Homo sapiens, UniProt P53778).
T16 construct: purchased Eurofins Discovery (KinaseProfiler service)
Described as above. To be noted: Km ATP, remaining enzyme activity, n = 2. The protocol:
as §1, §2, §3, §4, §5, §6, §7, §8

The target in test [17] is T17, CDK9/cyclin T1 (Homo sapiens, UniProt P50750).
T17 construct: purchased Eurofins Discovery (KinaseProfiler service)
T17 sequence (P50750 whole entry): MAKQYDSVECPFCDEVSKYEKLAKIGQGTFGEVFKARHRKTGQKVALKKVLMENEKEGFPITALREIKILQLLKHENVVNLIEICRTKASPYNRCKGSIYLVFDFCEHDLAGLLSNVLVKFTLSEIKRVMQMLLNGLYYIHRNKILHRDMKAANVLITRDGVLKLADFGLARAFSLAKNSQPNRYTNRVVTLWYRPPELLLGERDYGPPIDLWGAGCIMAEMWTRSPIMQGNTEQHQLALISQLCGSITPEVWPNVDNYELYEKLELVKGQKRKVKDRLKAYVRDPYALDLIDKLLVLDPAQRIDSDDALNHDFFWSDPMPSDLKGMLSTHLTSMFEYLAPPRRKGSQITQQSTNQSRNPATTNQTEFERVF
T17 sequence (O60563 whole entry partner): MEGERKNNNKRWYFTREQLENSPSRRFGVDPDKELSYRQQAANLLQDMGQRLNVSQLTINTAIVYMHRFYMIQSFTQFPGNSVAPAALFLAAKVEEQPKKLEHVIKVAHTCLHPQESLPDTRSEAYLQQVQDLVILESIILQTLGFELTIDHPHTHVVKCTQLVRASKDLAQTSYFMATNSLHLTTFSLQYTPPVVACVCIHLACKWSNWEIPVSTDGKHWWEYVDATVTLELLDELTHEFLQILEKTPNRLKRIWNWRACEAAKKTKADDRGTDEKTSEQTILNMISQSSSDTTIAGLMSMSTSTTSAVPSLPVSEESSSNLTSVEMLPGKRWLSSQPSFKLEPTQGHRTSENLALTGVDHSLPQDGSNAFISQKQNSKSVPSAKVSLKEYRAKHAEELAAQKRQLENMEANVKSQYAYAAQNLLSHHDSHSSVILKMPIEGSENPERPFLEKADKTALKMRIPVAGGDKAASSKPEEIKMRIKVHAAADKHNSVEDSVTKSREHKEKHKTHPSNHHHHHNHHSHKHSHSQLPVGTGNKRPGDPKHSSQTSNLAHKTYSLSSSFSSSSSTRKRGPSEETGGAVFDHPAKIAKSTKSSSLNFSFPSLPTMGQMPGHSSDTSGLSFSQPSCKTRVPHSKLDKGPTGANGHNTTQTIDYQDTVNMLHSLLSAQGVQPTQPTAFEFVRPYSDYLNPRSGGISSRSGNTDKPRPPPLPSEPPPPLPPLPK
The test is described as above. To be noted: Km ATP, remaining enzyme activity, n = 2. As to the method: as §1, §2, §3, §4, §5, §6, §7, §8

Test [18] deals with T1, GSK-3β. Described as above. Details: purchased Eurofins Discovery (KinaseProfiler service). As to the method: as §1, §2, §3, §4, §5, §6, §7, §8

Molecules are shown by their SMILES. Read-outs that look alike come from different tables or passages of the source.

One may read the Ki as a dissociation constant, usually derived from enzyme kinetics or from competition with a known ligand. A word on the inhibition: it is the relative decrease from the control value, in per cent. A low value points to a response near the control.

T2 sequence (Q9Y463 whole entry): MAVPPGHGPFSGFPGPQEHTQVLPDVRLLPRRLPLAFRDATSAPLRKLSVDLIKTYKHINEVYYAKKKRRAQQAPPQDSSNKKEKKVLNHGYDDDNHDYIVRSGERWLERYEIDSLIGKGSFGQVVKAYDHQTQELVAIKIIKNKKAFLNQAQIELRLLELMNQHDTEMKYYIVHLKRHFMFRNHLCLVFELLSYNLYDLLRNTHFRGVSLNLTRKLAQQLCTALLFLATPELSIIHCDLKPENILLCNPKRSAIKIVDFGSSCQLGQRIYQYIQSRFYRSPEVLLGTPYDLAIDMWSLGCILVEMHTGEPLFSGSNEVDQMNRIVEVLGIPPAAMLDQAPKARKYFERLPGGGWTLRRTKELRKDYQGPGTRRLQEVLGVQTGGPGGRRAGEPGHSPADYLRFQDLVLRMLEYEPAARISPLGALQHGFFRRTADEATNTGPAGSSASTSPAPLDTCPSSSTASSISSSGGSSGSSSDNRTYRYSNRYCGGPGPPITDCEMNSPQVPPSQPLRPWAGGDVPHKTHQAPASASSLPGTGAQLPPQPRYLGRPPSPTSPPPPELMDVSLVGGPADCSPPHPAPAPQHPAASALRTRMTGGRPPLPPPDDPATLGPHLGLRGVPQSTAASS
T12 sequence (P45984 whole entry): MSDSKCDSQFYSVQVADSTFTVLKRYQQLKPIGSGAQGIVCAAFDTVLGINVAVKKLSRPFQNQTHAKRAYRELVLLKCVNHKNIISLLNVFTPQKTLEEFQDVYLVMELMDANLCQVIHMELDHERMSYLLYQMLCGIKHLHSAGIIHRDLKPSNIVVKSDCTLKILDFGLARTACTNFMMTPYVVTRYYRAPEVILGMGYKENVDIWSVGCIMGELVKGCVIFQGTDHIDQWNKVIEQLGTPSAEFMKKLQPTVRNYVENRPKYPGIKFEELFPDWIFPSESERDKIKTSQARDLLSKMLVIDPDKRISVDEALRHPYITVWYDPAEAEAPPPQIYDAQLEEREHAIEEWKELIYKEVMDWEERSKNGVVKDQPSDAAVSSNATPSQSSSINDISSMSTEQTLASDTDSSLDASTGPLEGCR
T3 sequence (P49840 whole entry): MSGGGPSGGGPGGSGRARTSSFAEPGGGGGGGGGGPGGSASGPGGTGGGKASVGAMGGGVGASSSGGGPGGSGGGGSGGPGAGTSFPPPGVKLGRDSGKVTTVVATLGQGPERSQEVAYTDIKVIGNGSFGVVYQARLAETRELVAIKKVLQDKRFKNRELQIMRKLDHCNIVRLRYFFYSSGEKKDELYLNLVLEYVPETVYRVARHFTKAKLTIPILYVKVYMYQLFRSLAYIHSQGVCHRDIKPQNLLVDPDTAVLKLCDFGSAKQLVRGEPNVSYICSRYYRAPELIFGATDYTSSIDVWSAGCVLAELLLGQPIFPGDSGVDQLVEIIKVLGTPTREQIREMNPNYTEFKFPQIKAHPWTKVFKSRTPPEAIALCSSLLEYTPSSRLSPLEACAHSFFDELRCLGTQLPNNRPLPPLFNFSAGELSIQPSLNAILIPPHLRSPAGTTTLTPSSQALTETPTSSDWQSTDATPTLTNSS

Take `O=C1NC2(CCOC2)Nc2cc(-c3ccnc(NC(=O)C4CC4)c3)sc21` (stereo not drawn) [Compound 62, N-(4-(4′-Oxo-3′,4,4′,5-tetrahydro-1′H,2H-spiro[furan-3,2′-thieno [3,2-d]pyrimidin]-6′-yl)pyridin-2-yl)cyclopropanecarboxamide]: in test [1] (ATP 10-100 μM, inhibitor 0-100 nM, Km rises, Vmax preserved), the “type of GSK-3β inhibition” value was “ATP-competitive”. Moreover, the inhibitory constant (Ki) in [1] (replot from Lineweaver-Burk plots, unit inferred, read-out: Determined Ki (Figure S2)) is 2.22 nM; in test [1] (replot of Lineweaver–Burk data, Km versus [I], read-out: Ki GSK-3β) it was 2 nM. The “% of enzyme activity at 1 μM of compound 62±SD, DYRK1B” value in test [2] is given as 1±1%. Further, the “% of enzyme activity at 1 μM of compound 62±SD, GSK-3α” value in test [3] amounted to 0±0%. Further, the “% of enzyme activity at 1 μM of compound 62±SD, CDK7/cyclinH/ MAT1” value in test [4] came to 57±1%. Further, in test [5], the “% of enzyme activity at 1 μM of compound 62±SD, CDK6/cyclinD3” value came out at 88±0%. For the same compound, the “% of enzyme activity at 1 μM of compound 62±SD, JNK3” value in [6] worked out at 21±2%. The “% of enzyme activity at 1 μM of compound 62±SD, CDK2/cyclinA” value in test [7] was determined as 26±2%. In addition, the “% of enzyme activity at 1 μM of compound 62±SD, MAPK1” value in test [8] is listed as 37±2%. Moreover, in test [9], the “% of enzyme activity at 1 μM of compound 62±SD, SAPK2b” value is given as 98±1%. Besides, in test [10], the “% of enzyme activity at 1 μM of compound 62±SD, CDK4/cyclinD3” value worked out at 83±5%. For the same compound, the “% of enzyme activity at 1 μM of compound 62±SD, CDK1/cyclinB” value in test [11] was 33±1%. In test [12], the “% of enzyme activity at 1 μM of compound 62±SD, JNK2α2” value was 89±14%. Besides, the “% of enzyme activity at 1 μM of compound 62±SD, SAPK2a(T106M)” value in test [13] came to 80±1%. The “% of enzyme activity at 1 μM of compound 62±SD, DYRK1A” value in test [14] amounted to 1±1%. Also, the “% of enzyme activity at 1 μM of compound 62±SD, MAPK2” value in [15] stood at 73±7%. The “% of enzyme activity at 1 μM of compound 62±SD, SAPK3” value in [16] amounted to 22±3%. Moreover, the “% of enzyme activity at 1 μM of compound 62±SD, CDK9/cyclin T1” value in test [17] was found to be 16±2%. In addition, in test [18] (Km ATP, remaining enzyme activity, n = 2), the “% of enzyme activity at 1 μM of compound 62±SD, GSK-3β” value came out at 1±1%. The same compound displayed an inhibition at 1 µM in [18] (text says GSK family) of 99%.

The record behind these values is paper PMC11173485, “Connecting GSK-3β Inhibitory Activity with IKK-β or ROCK-1 Inhibition to Target Tau Aggregation and Neuroinflammation in Alzheimer’s Disease—Discovery, In Vitro and In Cellulo Activity of Thiazole-Based Inhibitors” (Molecules, 2024).
